Experimental findings from patent US7812044B2, “Anticancer agents” (Takeda Pharmaceutical Company Limited, priority 2001, dated 2010) are described below.

The subject of test [1] is STAT3. Briefly: Phosphorylation after EGF stimulation of LNCaP cells, each concentration of compound. The class given is cell-based. Conditions: EGF 1 ng/ml, compound 10^-6 M, 5x10^-6 M, 10x10^-6 M.
Test [2] deals with MAPK. The test can be described thus: Phosphorylation of MAPK in LNCaP cells stimulated with IL-6. In kind it is cell-based. The note with it: IL-6 25 ng/ml, compound 10^-6 M, 5x10^-6 M, 10x10^-6 M. How it is done: (3) LNCaP cells (10^7 cells) were cultured in a serum-free culture medium (F-12+1 mg/ml BSA) for 24 hours, IL-6: 25 ng/ml and each concentration of Compound B (10^−6 M, 5×10^−6 M, 10×10^−6 M) were added, and phosphorylation of MAPK was investigated.

The subject of test [3] is MAPK. Briefly: Phosphorylation of MAPK in LNCaP cells stimulated with EGF. In kind it is cell-based. Conditions: EGF 1 ng/ml, compound 10^-6 M added 30 minutes before. How it is done:
(1) LNCaP cells (10^7 cells) were cultured in a serum-free culture medium (F-12+1 mg/ml BSA) for 24 hours, each concentration of EGF and Compound B (10^−6 M) were added, and phosphorylation of MAPK was investigated.

Test [4] relates to LNCaP (androgen receptor positive cell line derived from metastasis of prostate cancer). Briefly: Cell number of LNCaP prostate cancer cells 5 days after addition of EGF and compound. In kind it is cell-based. The note with it: serum free, 10^-6 M compound plus EGF. How it is done:
Prostate cancer cells, LNCaP (androgen receptor positive cell line derived from metastasis of prostate cancer) were seeded on a dish (1×10^5 cells/dish), and cultured for 24 hours under serum free conditions. Then, EGF and Compound B were added, and 5 days after, the number of cells was counted [FIG. 2].

Test [5] relates to DU-145 (androgen receptor negative cell line derived from metastasis of prostate cancer). The test can be described thus: Cell number of DU-145 prostate cancer cells 5 days after addition of EGF and compound. The class given is cell-based. Conditions: DU-145, serum free, 10^-6 M compound plus EGF. How it is done:
Prostate cancer cells, DU-145 (androgen receptor negative cell line derived from metastasis of prostate cancer) were seeded on a 6-well dish (1×10^5 cells/well), and cultured for 24 hours under serum free conditions. Then, EGF and 2-ethoxy-1-[[2′-(1H-tetrazol-5-yl)biphenyl-4-yl]methyl]benzimidazole-7-carboxylic acid (Compound B) were added, and 5 days after, the number of cells was counted with a hematocytometer [FIG. 1].

For test [6], the system named is STAT3. The test can be described thus: Activated STAT3 in LNCaP cells, Western blotting with anti-phospho-STAT3 (Tyr705) antibody. The class given is cell-based. Conditions: 24 h no serum, angiotensin II 1x10^-6 M or EGF 1 ng/ml. Here is the method:
In order to make clear the effect of angiotensin II on an cellular protein STAT3 which is one of signal transducing molecules of a growth factor and a cytokine and is said to be involved in cell growth, prostate cancer LNCaP cells were cultured for 24 hours with no serum stimulation, and then, stimulated with angiotensin II (1×10^−6 M) or EGF (1 ng/ml) already known to have growth promoting effect, and cells were collected at an appropriate time. The whole cell lysate was separated by SDS-PAGE, and then, transferred onto a PVDF membrane. Activated STAT3 and a total amount of STAT3 were confirmed by Western blotting method using an anti-phospho-STAT3 (Tyr705) antibody which recognizes only activated STAT3 (Cell Signaling Technology, 166B Cumming Center Beverly, Mass. 01915 U.S.A.: in FIG. 5, WB: PSTAT3), and a STAT3 antibody which recognizes all endogenous STAT3s (Cell Signaling Technology, 166B Cumming Center Beverly, Mass. 01915 U.S.A.: in FIG. 5, WB: STAT3) [FIG. 5]. […] That is, it has been apparent that STAT3 controlling cell growth is activated by stimulation with angiotensin II.

Test [7] relates to tyrosine phosphorylation of cellular proteins in LNCaP cells. Briefly: Tyrosine phosphorylation of cellular proteins in LNCaP cells, Western blotting with anti-phospho-tyrosine antibody. The class given is cell-based. The note with it: 24 h no serum, angiotensin II 1x10^-6 M or EGF 1 ng/ml, 5 minutes. Here is the method: It is already known that, when growth stimulation such as EGF is applied to cells, phosphorylation of cellular proteins is induced by activation of signal transduction pathway. Then, in order to make clear the effect of angiotensin II on prostate cancer, prostate cancer LNCaP cells were cultured for 24 hours with no serum stimulation, and then, the culture was stimulated with angiotensin II (1×10^−6 M) or EGF (1 ng/ml) which was already known to have growth promoting effect, and 5 minutes after, cells were collected. The whole cell lysate separated by SDS-PAGE, transferred onto a PVDF membrane, and then tyrosine phosphorylation of an cellular protein was observed by Western blotting method using an anti-phospho-tyrosine antibody (Upstate, 10 Old Barn Road Lake Placid, N.Y. 12946 U.S.A.) [FIG. 3]. […] That is, it is considered that stimulation with angiotensin II has the same or similar effect as that of stimulation with EGF on prostate cancer cells.
(In western blotting, separated proteins are transferred to a membrane and probed.)

In the next test the test system is MAP kinase. The test can be described thus: Activated MAP kinase in LNCaP cells, Western blotting with anti-phospho-MAP kinase antibody. The class given is cell-based. The note with it: 24 h no serum, angiotensin II 1x10^-6 M or EGF 1 ng/ml. Here is the method:
In order to make clear the effect of angiotensin II on MAP kinase which is one of cellular proteins controlling cell growth, prostate cancer LNCaP cells were cultured for 24 hours with no serum stimulation, and then, stimulated with angiotensin II (1×10^−6 M) or EGF (1 ng/ml) already known to have growth promoting effect, and cells were collected at an appropriate time. The whole cell lysate was separated by SDS-PAGE, and then, transferred onto a PVDF membrane, and a total amount of cellular activated MAP kinase and MAP kinase was measured by Western blotting method using an anti-phospho-MAP kinase antibody which recognizes only activated MAP kinase (Cell Signaling Technology, 166B Cumming Center Beverly, Mass. 01915 U.S.A.: in FIG. 4, WB: PMAPK), and a MAP kinase antibody which recognizes all endogenous MAP kinases (Cell Signaling Technology, 166B Cumming Center Beverly, Mass. 01915 U.S.A.: in FIG. 4, WB: MAPK) [FIG. 4]. […] That is, it has been apparent that MAP kinase controlling cell growth is activated by stimulation of angiotensin II.

For the next test, the system named is DU145 cells. The test can be described thus: Tumor growth of subcutaneous DU145 tumor in nude mouse, compound in drinking water. The class given is in vivo, nude mouse (Balb/c). How it is done:
To a male 4 week-old nude mouse (Balb/c), 5×10^6 DU145 cells were subcutaneously injected on a back. After 10 days, when tumor having a diameter of 5 mm was formed (week 0), Candesartan cilexetil (Compound C) was mixed into drinking water so that Compound C could be orally taken at a dosage of 5 mg/kg day or 2.5 mg/kg day (each group: n=5). As a control group, a group (n=5) receiving no Compound C was bred at the same time. Initiation of the oral administration was regarded as week 0, each group was bred for 4 weeks, and a diameter of tumor was measured every week.

The test system of test [8] is microvessels in DU145 tumor. The test can be described thus: Number of microvessels in DU145 tumor of nude mouse, anti-CD31 staining. In kind it is in vivo, nude mouse (Balb/c). The note with it: 5 mg/kg/day orally, 4 weeks, magnification 400; control 72.5±9.7, P<0.02. How it is done: To a male 4 week old nude mouse (Balb/c), 5×10^6 DU145 cells were subcutaneously injected on a back. After 10 days, when tumor having a diameter of 5 mm was formed (0 week), Candesartan cilexetil (Compound C) was mixed into drinking water (each group: n=3) so that Compound C could be orally taken the an amount of 5 mg/kg/day. As a control group, a group (n=3) receiving no Compound C was bred at the same time. Initiation of the oral administration was regarded as week 0, each group was bred for 4 weeks, and thereafter, tumor was isolated, stained with an anti-CD31 antibody as described hereinafter, and the number of microvessels in tumor was examined. Under a microscope (magnification 400), four places rich in the number of microvessels were selected from a tumor solid tissue part, and the number was counted. The results are shown in [FIG. 7]. Average 72.5±9.7 vessels were recognized in one field in case of the control group, and average 37.5±3.3 vessels were recognized in one field in case of the Compound C-administered group and, thus, a significant difference was recognized between both groups (P<0.02).
Vessels in a tumor-transplanted tissue of a nude mouse were immunologically stained using an anti-mouse CD31 antibody, and the number of vessels and vascularization state were studied. Procedures were as follows: […]

As to `CCOc1nc2cccc(C(=O)O)c2n1Cc1ccc(-c2ccccc2-c2nnn[nH]2)cc1` [Compound B, 2-ethoxy-1-[[2′-(1H-tetrazol-5-yl)biphenyl-4-yl]methyl]benzimidazole-7-carboxylic acid], the “phosphorylation of STAT3 by EGF stimulation” value in the test with STAT3 [1] is “inhibited in a Compound B dose dependant manner”. In addition, the “phosphorylation of MAPK by IL-6” value in the test with MAPK [2] is “inhibited in a Compound B dose dependent manner”. In addition, the “phosphorylation of MAPK by EGF stimulation” value in the test with MAPK [3] is recorded as “phosphorylation was inhibited”. In addition, the “reduction of the number of cells as compared with stimulation with EGF alone” value is listed as “about 22%” in [4] and “about 12%” in [5].

Take “angiotensin II: stimulant of LNCaP cells acting on the angiotensin II receptor AT1 (DRVYIHPF; Angiotensin-2; UniProt P01019 25-32, looked up)”: in the test on STAT3 [6], the “activated STAT3 (WB: PSTAT3)” value was “activated STAT3 was increased”. Besides, in [7], the “tyrosine phosphorylation of cellular proteins” value is on record as “tyrosine phosphorylation of the same protein by stimulation with angiotensin II was also observed”. Besides, in the test with MAP kinase, the “activated MAP kinase (WB: PMAPK)” value was “activated MAP kinase was increased”.

With `CCOc1nc2cccc(C(=O)OC(C)OC(=O)OC3CCCCC3)c2n1Cc1ccc(-c2ccccc2-c2nnn[nH]2)cc1` (centres unmarked) [Compound C, 1-(cyclohexyloxycarbonyloxy)ethyl 2-ethoxy-1-[[2′-(1H-tetrazol-5-yl)biphenyl-4-yl]methyl]benzimidazole-7-carboxylate], in the test on DU145 cells (5 mg/kg/day orally, in and after week 2), the “growth inhibition as compared with the control group” value is on record as “significant difference of P<0.01”. The “tumor growth (diameter of tumor)” value in the test on DU145 cells (5 or 2.5 mg/kg/day orally in drinking water, from week 2, 4 weeks) is reported as “inhibition of tumor growth was observed”. Further, the “number of microvessels in tumor, average vessels in one field” value in test [8] is 37.5±3.3 vessels.

In the case of “EGF: growth factor already known to have growth promoting effect”, the “activated STAT3 (WB: PSTAT3)” value with STAT3 [6] was “activated STAT3 was increased”. Moreover, in test [7], the “tyrosine phosphorylation of cellular proteins” value is “tyrosine phosphorylation was induced”. Moreover, in the test with MAP kinase, the “activated MAP kinase (WB: PMAPK)” value was “activated MAP kinase was increased”.
